In patent US20230035127A1, “CULTURE AND DIFFERENTIATION OF PLURIPOTENT STEM CELLS” (University of Maryland, College Park, priority 2021, published 2023):

Tested on: human eiPSCs (DF19-9-11T.H)
Experiment: 3D suspension culture of eiPSC spheroids with Rock inhibitor (morphology, size, cells per spheroid)
Assay type: cell-based
Settings: day −3
Method: The timeline for the 4-day (from day −4 to 0) 3D culture and the subsequent 3D cardiac differentiation of iPSCs is illustrated in FIG. 1B. First, 3D eiPSC spheroids were obtained for 3D cardiac differentiation, for which the eiPSC colonies from 2D culture were detached and mechanically cut with a cell strainer (100 μm mesh size) into small iPSC clumps for suspension culture in the mTeSR medium for 4 days. Methylcellulose was added into the medium to enhance the medium viscosity and reduce fusion of the eiPSC clumps/spheroids during the suspension culture. During the first two days of 3D culture, the medium was supplemented with 1 μM RI (low RI) or 10 μM RI (high RI that has been commonly used for improving the survival/yield of human PSCs including iPSCs during culture), and no RI was used during the last two days of culture. […]
To obtain 3D iPSC spheroids, the iPSC colonies under 2D culture at ˜80% confluence were treated with Versene for 2 min, rinsed with PBS, and further detached from the substrate by gentle pipetting. […] The dissociated cells were then resuspended in 1.4 ml of the aforementioned iPSC maintenance medium and the cell number was counted using a hemocytometer. […]

Compound: C[C@@H](N)[C@H]1CC[C@H](C(=O)Nc2ccncc2)CC1.Cl.Cl (relative stereo) [RI, (+)-(R)-trans-4-(1-aminoethyl)-N-(4-pyridyl) cyclo-hexanecarboxamide dihydrochloride]
- morphology of eiPSC spheroids (1 μM RI): remain solid-like
- morphology of eiPSC spheroids (10 μM RI): evident core-shell morphology with a cavity-like core
